Data: publication PMC8863796 (Communications Biology, 2022)

What was measured:
[1] = target: SARS-CoV-2 exonuclease complex (nsp14/nsp10) (Severe acute respiratory syndrome coronavirus 2, UniProt P0DTD1); parameters: method as in earlier work; details: previously demonstrated; cited from earlier work
[2] = target: T1, SARS-CoV-2 RdRp complex (nsp12/nsp7/nsp8) (Severe acute respiratory syndrome coronavirus 2, UniProt P0DTD1); assay: Extension reactions of RNA template-loop-primers with nucleotide analogue triphosphates; assay type: biochemical; details: single-base extension of RNA template-loop-primers
T1 construct: made in house
Description: In total, 10 µL of 10 µM RNA template-loop-primers (5′-[…]-3′ for RDV-TP extension; 5′-[…]-3′ for SOF-TP extension) in 1 × RdRp reaction buffer was annealed by heating to 75 °C for 3 min and cooling to room temperature. In all, 5 µL of 8 µM RdRp complex (nsp12/nsp7/nsp8)[11],[20] in 1× reaction buffer was added to the annealed RNA template-loop-primer solution and incubated for an additional 10 min at room temperature. Finally, 5 µL of a solution containing 0.2 mM RDV-TP or 2 mM SOF-TP in 1× reaction buffer was added, and incubation was carried out for 2 h at 30 °C. The final concentrations of reagents in the 20 µL extension reactions were 2 µM nsp12/nsp7/nsp8, 5 µM RNA template-loop-primer, 50 µM RDV-TP, and 500 µM SOF-TP. The 1× reaction buffer contains the following reagents: 10 mM Tris-HCl pH 8, 10 mM KCl, 2 mM MgCl2 and 1 mM β-mercaptoethanol. Desalting of the reaction mixture was performed with an Oligo Clean & Concentrator kit (Zymo Research) resulting in ~10 µL purified aqueous RNA solutions. 1 µL of each solution was subjected to MALDI-TOF MS (Bruker ultrafleXtreme) analysis. The remaining ~9 µL extended template-loop-primer solutions were used to test exonuclease activity.
The RNA template-loop primer (5′-[…]-3′) was annealed at 75 °C for 3 min and cooled to room temperature for 25 min in 1× ThermoPol buffer before adding the other ingredients. The final 20 µL mixture containing 5 µM of the RNA template-loop primer, 250 µM, 500 µM or 1 mM AT-9010, 2 mM MnCl2 and 0.2 unit Therminator II in 1× ThermoPol buffer was incubated in a thermal cycler using the following protocol (28 cycles of 45 °C for 30 s, 55 °C for 30 s, 65 °C for 30 s). Desalting of the reaction mixture was performed with an Oligo Clean & Concentrator kit (Zymo Research) resulting in ~10 µL purified aqueous RNA solutions. 1 µL of each solution was subjected to MALDI-TOF MS (Bruker ultrafleXtreme) analysis. The remaining ~9 µL extended template-loop-primer solutions were used to test exonuclease activity. […]

| Compound | inhibition of SARS-CoV-2 exonuclease [1] | incorporation into RNA (template base opposite) [2] |
| --- | --- | --- |
| COC[C@H]1C[C@@H](c2nc(-c3ccc4c(c3)COc3cc5c(ccc6nc([C@@H]7CC[C@H](C)N7C(=O)[C@@H](NC(=O)OC)C(C)C)[nH]c65)cc3-4)c[nH]2)N(C(=O)[C@H](NC(=O)OC)c2ccccc2)C1 [Velpatasvir] | can inhibit the SARS-CoV-2 exonuclease |  |
| NC(=O)c1nc(F)cn([C@@H]2O[C@H](COP(=O)(O)OP(=O)(O)OP(=O)(O)O)[C@@H](O)[C@H]2O)c1=O [Favipiravir-RTP, Favipiravir-ribofuranosyl-5’-triphosphate] |  | incorporated into RNA opposite C or U |
| C[C@@]1(F)[C@H](O)[C@@H](COP(=O)(O)OP(=O)(O)OP(=O)(O)O)O[C@H]1n1cnc2c(=O)[nH]c(N)nc21 [AT-9010, 2’-fluoro-2’-methyl guanosine-5’-triphosphate] |  | incorporated opposite C |
| O=c1nc(NO)ccn1[C@@H]1O[C@H](COP(=O)(O)OP(=O)(O)OP(=O)(O)O)[C@@H](O)[C@H]1O [NHC-TP, N^4-hydroxycytidine-5’-triphosphate] |  | incorporated opposite A or G |
